Results on 1 molecule are retold here after patent US20170218397A1, “C[…] GENE THERAPY VECTOR FOR […] CELL MO[…] ANTI HIV GENE THERAPY” (Texas Tech University System, priority 2014, published 2017).

One series concerns HIV. Briefly: Viability, HIV replication and cytopathic effect in transduced T cells infected with HIV with GCV. In kind it is cell-based. The source says: FIG. 10 depicts photographic images of cells in accordance with experimental embodiments.
On the technique in general: Cytopathic effects are the visible damage that an infection or toxin causes in cultured cells.

For series [1] the following is noted: herpes (CMV) treatment in HIV infected patients; cited from earlier work.

On to `Nc1nc(O)c2ncn(COC(CO)CO)c2n1` [Ganciclovir], for which, in the series on HIV, the “viability of transduced T cells infected with HIV” value is “increased viability”. Also, the HIV replication entry with HIV (in the presence of GCV) is on record as “diminished HIV replication”. For the same molecule, the “toxicity or side effects” value in series [1] is reported as “without significant toxicity or side effects”.
